Measured values published in ChEMBL document CHEMBL3817836, “One small molecule as a theranostic agent: naphthalimide dye for subcellular fluorescence localization and photodynamic therapy in vivo” (Medchemcomm, 2016).
Calls of active or inactive are those of the source. No cut-off for these calls is given here.

Legend:
[1] = Cellular uptake in mitochondria of human […] cells at 2.5 uM incubated for 48 hrs followed by 28.8 J/cm2 laser irradiation for 20 mins by Mitotracker Red dye based confocal microscopy; assay type: ADME
MCF7 [2] = experiment: Photo-cytotoxicity against human MCF7 cells assessed as induction of cell death incubated for 48 hrs followed by 28.8 J/cm2 laser irradiation dose 20 mins by MTT assay; assay type: functional, cell-based
[3] = Cellular uptake in lysosome of human […] cells at 2.5 uM incubated for 48 hrs followed by 28.8 J/cm2 laser irradiation for 20 mins by lysosome Red dye based confocal microscopy; assay type: ADME, cell-based
Mus musculus [4] = experiment: Toxicity in nude mouse xenografted with human A375 cells assessed as change in body weight at 5 mg/kg administered twice a week measured after 21 days; assay type: organism-based, A-375; conditions: in vivo, 504 h
A-375 [5] = experiment: Antitumor activity against human A375 cells xenografted in nude mouse assessed as tumor size at 5 mg/kg administered twice week measured after 21 days (reference value: 4.31 +/- 0.38); assay type: functional
Mus musculus [6] = experiment: Toxicity in nude mouse xenografted with human A375 cells assessed as tissue lesions at 5 mg/kg by hematoxylin-eosin staining method; assay type: organism-based, A-375; conditions: in vivo
A-375 [7] = experiment: Induction of apoptosis in human A375 cells exposed to 28.8 J/cm2 laser irradiation assessed as apoptotic bodies measured after 12 hrs by TUNEL assay; assay type: functional, cell-based
A-375 [8] = experiment: Induction of apoptosis in human A375 cells exposed to 28.8 J/cm2 laser irradiation assessed as increase in intracellular ROS using DCFH-DA after 12 hrs by spectrofluorimetric method; assay type: functional, cell-based
A-375 [9] = experiment: Induction of apoptosis in human A375 cells exposed to 28.8 J/cm2 laser irradiation assessed as nuclear fragmentation measured after 12 hrs by TUNEL assay; assay type: functional, cell-based
A-375 [10] = experiment: Induction of apoptosis in human A375 cells exposed to 28.8 J/cm2 laser irradiation assessed as nuclear condensation measured after 12 hrs by TUNEL assay; assay type: functional, cell-based
A-375 [11] = experiment: Induction apoptosis in human A375 cells xenografted into nude mouse at 5 mg/kg administered twice week measured after 21 days by TUNEL assay; assay type: functional, organism-based
Mus musculus [12] = experiment: Toxicity in nude mouse xenografted with human A375 cells exposed to 28.8 J/cm2 laser irradiation assessed as change in body weight at 5 mg/kg administered twice a week measured after 21 days; assay type: organism-based, A-375; conditions: in vivo, 504 h
A-375 [13] = experiment: Induction of apoptosis in human A375 cells exposed to 28.8 J/cm2 laser irradiation assessed as increase in PARP cleavage by western blot analysis; assay type: functional, cell-based; conditions: TDE = time-dependent effect
[14] = Toxicity against human MCF7 cells assessed as reduction in cell viability measured after 48 hrs by MTT assay; assay type: cell-based
A-375 [15] = experiment: Induction of apoptosis in human A375 cells exposed to 28.8 J/cm2 laser irradiation assessed as increase in caspase3 cleavage by western blot analysis; assay type: functional, cell-based; conditions: TDE = time-dependent effect
A-375 [16] = experiment: Induction apoptosis in human A375 cells xenografted into nude mouse exposed to 28.8 J/cm2 laser irradiation assessed as increase in cleaved capase-3 level at 5 mg/kg administered twice week measured after 21 days by immunohistochemistry assay; assay type: functional, organism-based
Mus musculus [17] = experiment: Toxicity in nude mouse xenografted with human A375 cells exposed to 28.8 J/cm2 laser irradiation assessed as tissue lesions at 5 mg/kg by hematoxylin-eosin staining method; assay type: organism-based, A-375; conditions: in vivo
[18] = Cellular uptake in endoplasmic reticulum of human […] cells at 2.5 uM incubated for 48 hrs followed by 28.8 J/cm2 laser irradiation for 20 mins by ER tracker Red dye based confocal microscopy; assay type: ADME, cell-based
HCT-116 = experiment: Photo-cytotoxicity against human HCT116 cells assessed as induction of cell death incubated for 48 hrs followed by 28.8 J/cm2 laser irradiation dose 20 mins by MTT assay; assay type: functional, cell-based
MCF7 [19] = experiment: Photo-cytotoxicity against human MCF7 cells assessed as reduction in cell viability incubated for 48 hrs followed by 28.8 J/cm2 laser irradiation for 20 mins by MTT assay; assay type: functional, cell-based; conditions: MCF7, light or radiation study
A-375 [20] = experiment: Induction apoptosis in human A375 cells xenografted into nude mouse exposed to 28.8 J/cm2 laser irradiation at 5 mg/kg administered twice week measured after 21 days by TUNEL assay; assay type: functional, organism-based
MKN-45 = experiment: Photo-cytotoxicity against human MKN45 cells assessed as induction of cell death incubated for 48 hrs followed by 28.8 J/cm2 laser irradiation dose 20 mins by MTT assay; assay type: functional, cell-based
A-375 [21] = experiment: Photo-cytotoxicity against human A375 cells assessed as induction of cell death incubated for 48 hrs followed by 28.8 J/cm2 laser irradiation dose 20 mins by MTT assay; assay type: functional, cell-based
A-375 [22] = experiment: Cellular uptake in human A375 cells at 2.5 uM incubated for 48 hrs followed by 28.8 J/cm2 laser irradiation for 20 mins by fluorescence microscopic imaging method; assay type: ADME, cell-based; conditions: a-375, 48 h
[23] = Cellular uptake in nucleus of human […] cells at 2.5 uM incubated for 48 hrs followed by 28.8 J/cm2 laser irradiation for 20 mins by DAPI dye based confocal microscopy; assay type: ADME, cell-based
A-375 [24] = experiment: Induction of apoptosis in human A375 cells exposed to 28.8 J/cm2 laser irradiation assessed as increase in intracellular ROS using DCFH-DA after 4 hrs by spectrofluorimetric method; assay type: functional, cell-based
A-375 [25] = experiment: Antitumor activity against human A375 cells xenografted in nude mouse exposed to 28.8 J/cm2 laser irradiation assessed as tumor size at 5 mg/kg administered twice week measured after 21 days (reference value: 4.31 +/- 0.38); assay type: functional

With `O=c1c2ccc3sc4ccc(Br)cc4c4ccc(c(=O)n1CCOCCO)c2c34` the Drug uptake [1] was “Active”, the Activity (MCF7 [2]) was “Dose-dependent effect” and the Drug uptake [3] was “Not Active”. For the same compound, the Activity (Mus musculus [4]) was “Non-toxic”, the “fold change (FC)” value (A-375 [5]) was 3 and the Activity (Mus musculus [6]) was “Toxic”. The Activity (A-375 [7]) was “Active”, the Activity (A-375 [8]) was “inactive” and the Activity (A-375 [9]) was “Active”. The Activity (A-375 [10]) was “Active”, the Activity (A-375 [11]) was “inactive” and the Activity (Mus musculus [12]) was “Non-toxic”. For the same compound, the Activity (A-375 [13]) was “tde”, the IC50 at 48 h [14] was over 50 µM and the Activity (A-375 [15]) was “tde”. For the same compound, the Activity (A-375 [16]) was “Active”, the Activity (Mus musculus [17]) was “Toxic” and the Drug uptake [18] was “Not Active”. For the same compound, the Activity (HCT-116) was “Dose-dependent effect”, the IC50 (MCF7 [19]) was 2.65 µM and the Activity (A-375 [20]) was “Active”. For the same compound, the Activity (MKN-45) was “Dose-dependent effect”, the Activity (A-375 [21]) was “Dose-dependent effect” and the Drug uptake (A-375 [22]) was “Active”. For the same compound, the Drug uptake [23] was “Not Active”, the Activity (A-375 [24]) was “Active” and the “fold change (FC)” value (A-375 [25]) was 0.5.
Compound `O=c1c2ccc3sc4ccccc4c4ccc(c(=O)n1CCOCCO)c2c34` has an IC50 at 48 h [14] of 18.2 µM and an IC50 (MCF7 [19]) of 1.4 µM.
`O=C1c2cccc3c2c(cc2c4cc(Br)ccc4sc32)C(=O)N1CCOCCO` showed an IC50 at 48 h [14] of over 50 µM and an IC50 (MCF7 [19]) of 18.5 µM.
`O=C1c2cccc3c2c(cc2c4ccccc4sc32)C(=O)N1CCOCCO` gave an IC50 at 48 h [14] of 18.8 µM and an IC50 (MCF7 [19]) of 11.4 µM.
